Test system: Jurkat cells
Experiment: (r) Cell cytotoxicity assay
Format: cell-based, human
Conditions: 24 hours
In short: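 Jurkat cells (1×10^5/well, RPMI + 10% FBS) exposed to compound at 20, 5 or 1 μg/mL final (1.0% DMSO control) for 24 h at 37° C., 5% CO2. Then stained with 7.5 μg/mL propidium iodide for 15 min. % viability = PI-negative cells by flow cytometry, normalized to DMSO.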

SMILES	% Viability at 1 μg/mL	% Viability at 5 μg/mL	% Viability at 20 μg/mL
COc1cc(Nc2cc(Oc3ccc(NC(=O)Nc4cc(C(C)(C)C)cc(NS(C)(=O)=O)c4OC)c4ccccc34)ccn2)ccc1C(=O)NCCN1CC[C@@H](O)C1 [17(cr), (R)-4-((4-((4-(3-(5-(tert-Butyl)-2-methoxy-3-(methylsulfonamido)phenyl)ureido)-naphthalen-1-yl)oxy)pyridin-2-yl)amino)-N-(2-(3-hydroxypyrrolidin-1-yl)ethyl)-2-methoxybenzamide]	81.1%	18.0%	0.9%
COc1cc(Nc2nccc(Oc3ccc(NC(=O)Nc4cc(C(C)(C)C)cc(NS(C)(=O)=O)c4OC)c4ccccc34)n2)ccc1C(=O)NCCN1CCN(C)CC1 [17(aq), 4-((4-((4-(3-(5-(tert-Butyl)-2-methoxy-3-(methylsulfonamido)phenyl)ureido)naphthalen-1-yl)oxy)pyrimidin-2-yl)amino)-2-methoxy-N-(2-(4-methylpiperazin-1-yl)ethyl)benzamide]	95.1%	0.2%	1.3%
COc1cc(Nc2cc(Oc3ccc(NC(=O)Nc4cc(C(C)(C)C)cc(NS(C)(=O)=O)c4OC)c4ccccc34)ccn2)ccc1S(=O)(=O)N(C)CCCN1CCN(C)CC1 [Example 25, 4-((4-((4-(3-(5-(tert-Butyl)-2-methoxy-3-(methylsulfonamido)phenyl)ureido)naphthalen-1-yl)oxy)pyridin-2-yl)amino)-2-methoxy-N-methyl-N-(3-(4-methylpiperazin-1-yl)propyl)benzenesulfonamide]	91.8%	78.9%	0.7%
COc1cc(Nc2cc(Oc3ccc(NC(=O)Nc4cc(C(C)(C)C)cc(NS(C)(=O)=O)c4OC)c4ccccc34)ccn2)ccc1C(=O)N[C@H]1C(O)O[C@H](CO)[C@@H](O)[C@@H]1O (stereo partly drawn) [17(br), 4-((4-((4-(3-(5-(tert-Butyl)-2-methoxy-3-(methylsulfonamido)phenyl)ureido)naphthalen-1-yl)oxy)pyridin-2-yl)amino)-2-methoxy-N-((3R,4R,5S,6R)-2,4,5-trihydroxy-6-(hydroxymethyl)tetrahydro-2H-pyran-3-yl)benzamide]	91.8%	90.7%	79.2%
COc1cc(Nc2cc(Oc3ccc(NC(=O)Nc4cc(C(C)(C)C)cc(NS(C)(=O)=O)c4OC)c4ccccc34)ccn2)ccc1S(=O)(=O)CCCN1CCN(C)CC1 [17(ch), N-(5-(tert-Butyl)-2-methoxy-3-(3-(4-((2-((3-methoxy-4-((3-(4-methylpiperazin-1-yl)propyl)sulfonyl)phenyl)amino)pyridin-4-yl)oxy)naphthalen-1-yl)ureido)phenyl)methanesulfonamide]	82.0%	10.2%	0.7%
